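Step 1: Grow cells in 96-well plates. Step 2: Expose to compound for 48 hours at 5 concentrations. Step 3: Interpolate endpoints linearly; if unreached, use highest concentration. At the TGI there is no net growth.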
Assays:
Assay in all cases: inhibition of tumour cell growth, NCI panel, 48 h
786-0 renal = system: 786-0 renal
A498 renal = system: A498 renal
A549 NSCLC = system: A549 NSCLC
ACHN renal = system: ACHN renal
BT-549 breast = system: BT-549 breast
CAKI-1 renal = system: CAKI-1 renal
CCRF-CEM leukemia = system: CCRF-CEM leukemia
COLO 205 colon = system: COLO 205 colon
DU-145 prostate = system: DU-145 prostate
EKVX NSCLC = system: EKVX NSCLC
HCC-2998 colon = system: HCC-2998 colon
HCT-116 colon = system: HCT-116 colon
HCT-15 colon = system: HCT-15 colon
HL-60(TB) leukemia = system: HL-60(TB) leukemia
HOP-62 NSCLC = system: HOP-62 NSCLC
HOP-92 NSCLC = system: HOP-92 NSCLC
HS 578T breast = system: HS 578T breast
HT29 colon = system: HT29 colon
IGROV1 ovarian = system: IGROV1 ovarian
K-562 leukemia = system: K-562 leukemia
KM12 colon = system: KM12 colon
LOX IMVI melanoma = system: LOX IMVI melanoma
M14 melanoma = system: M14 melanoma
MCF7 breast = system: MCF7 breast
MDA-MB-231 breast = system: MDA-MB-231 breast
MDA-MB-435 = system: MDA-MB-435
MDA-N = system: MDA-N
MOLT-4 leukemia = system: MOLT-4 leukemia
NCI-H226 lung = system: NCI-H226 lung
NCI-H23 lung = system: NCI-H23 lung
NCI-H460 lung = system: NCI-H460 lung
NCI-H522 lung = system: NCI-H522 lung
NCI/ADR-RES ovarian = system: NCI/ADR-RES ovarian
OVCAR-3 ovarian = system: OVCAR-3 ovarian
OVCAR-4 ovarian = system: OVCAR-4 ovarian
OVCAR-5 ovarian = system: OVCAR-5 ovarian
OVCAR-8 ovarian = system: OVCAR-8 ovarian
PC-3 prostate = system: PC-3 prostate
RPMI-8226 leukemia = system: RPMI-8226 leukemia
RXF 393 renal = system: RXF 393 renal
SF-268 CNS = system: SF-268 CNS
SF-295 CNS = system: SF-295 CNS
SF-539 CNS = system: SF-539 CNS
SK-MEL-2 melanoma = system: SK-MEL-2 melanoma
SK-MEL-28 melanoma = system: SK-MEL-28 melanoma
SK-MEL-5 melanoma = system: SK-MEL-5 melanoma
SK-OV-3 ovarian = system: SK-OV-3 ovarian
SN12C renal = system: SN12C renal
SNB-19 CNS = system: SNB-19 CNS
SNB-75 CNS = system: SNB-75 CNS
SR leukemia = system: SR leukemia
SW-620 colon = system: SW-620 colon
T-47D breast = system: T-47D breast
TK-10 renal = system: TK-10 renal
U251 CNS = system: U251 CNS
UACC-257 melanoma = system: UACC-257 melanoma
UACC-62 melanoma = system: UACC-62 melanoma
UO-31 renal = system: UO-31 renal

For COC(=O)C(CCC1CC(OC)N(C(=O)OCc2ccccc2)C1)N=Cc1ccccc1 (configuration not stated), the TGI (786-0 renal) was greater than 100 µM, the TGI (A498 renal) was greater than 100 µM and the TGI (A549 NSCLC) was greater than 100 µM. The TGI (ACHN renal) was greater than 100 µM, the TGI (BT-549 breast) was greater than 100 µM and the TGI (CAKI-1 renal) was greater than 100 µM. It also gave a TGI (CCRF-CEM leukemia) greater than 100 µM, a TGI (COLO 205 colon) of 78.7 µM and a TGI (DU-145 prostate) greater than 100 µM. For the same molecule, the TGI (EKVX NSCLC) was greater than 100 µM, the TGI (HCC-2998 colon) was greater than 100 µM and the TGI (HCT-116 colon) was greater than 100 µM. For the same molecule, the TGI (HCT-15 colon) was greater than 100 µM, the TGI (HL-60(TB) leukemia) was greater than 100 µM and the TGI (HOP-62 NSCLC) was greater than 100 µM. For the same molecule, the TGI (HOP-92 NSCLC) was greater than 100 µM, the TGI (HS 578T breast) was greater than 100 µM and the TGI (HT29 colon) was greater than 100 µM. The TGI (IGROV1 ovarian) was greater than 100 µM, the TGI (K-562 leukemia) was greater than 100 µM and the TGI (KM12 colon) was greater than 100 µM. It also gave a TGI (LOX IMVI melanoma) greater than 100 µM, a TGI (M14 melanoma) greater than 100 µM and a TGI (MCF7 breast) greater than 100 µM. The TGI (MDA-MB-231 breast) was greater than 100 µM, the TGI (MDA-MB-435) was greater than 100 µM and the TGI (MDA-N) was greater than 100 µM. The TGI (MOLT-4 leukemia) was greater than 100 µM, the TGI (NCI-H226 lung) was greater than 100 µM and the TGI (NCI-H23 lung) was greater than 100 µM. For the same molecule, the TGI (NCI-H460 lung) was greater than 100 µM, the TGI (NCI-H522 lung) was 72.9 µM and the TGI (NCI/ADR-RES ovarian) was greater than 100 µM. The TGI (OVCAR-3 ovarian) was greater than 100 µM, the TGI (OVCAR-4 ovarian) was greater than 100 µM and the TGI (OVCAR-5 ovarian) was greater than 100 µM. The TGI (OVCAR-8 ovarian) was greater than 100 µM, the TGI (PC-3 prostate) was greater than 100 µM and the TGI (RPMI-8226 leukemia) was 91.7 µM. The TGI (RXF 393 renal) was greater than 100 µM, the TGI (SF-268 CNS) was greater than 100 µM and the TGI (SF-295 CNS) was greater than 100 µM. For the same molecule, the TGI (SF-539 CNS) was greater than 100 µM, the TGI (SK-MEL-2 melanoma) was 78.8 µM and the TGI (SK-MEL-28 melanoma) was greater than 100 µM. It also gave a TGI (SK-MEL-5 melanoma) of 83.9 µM, a TGI (SK-OV-3 ovarian) greater than 100 µM and a TGI (SN12C renal) greater than 100 µM. The TGI (SNB-19 CNS) was greater than 100 µM, the TGI (SNB-75 CNS) was greater than 100 µM and the TGI (SR leukemia) was greater than 100 µM. It also gave a TGI (SW-620 colon) greater than 100 µM, a TGI (T-47D breast) greater than 100 µM and a TGI (TK-10 renal) greater than 100 µM. The TGI (U251 CNS) was greater than 100 µM, the TGI (UACC-257 melanoma) was greater than 100 µM and the TGI (UACC-62 melanoma) was greater than 100 µM. It also gave a TGI (UO-31 renal) greater than 100 µM.
Molecule COc1cc(CCCl)c(CC2=NCCc3cc(OC)c(OC)cc32)cc1OC has a TGI (A549 NSCLC) greater than 100 µM, a TGI (ACHN renal) greater than 100 µM and a TGI (BT-549 breast) greater than 100 µM. For the same molecule, the TGI (CAKI-1 renal) was greater than 100 µM, the TGI (CCRF-CEM leukemia) was greater than 100 µM and the TGI (COLO 205 colon) was greater than 100 µM. It also gave a TGI (DU-145 prostate) greater than 100 µM, a TGI (EKVX NSCLC) greater than 100 µM and a TGI (HCC-2998 colon) greater than 100 µM. It also gave a TGI (HCT-116 colon) greater than 100 µM, a TGI (HL-60(TB) leukemia) greater than 100 µM and a TGI (HOP-62 NSCLC) greater than 100 µM. It also gave a TGI (HOP-92 NSCLC) greater than 100 µM, a TGI (HS 578T breast) of 80.7 µM and a TGI (HT29 colon) greater than 100 µM. It also gave a TGI (IGROV1 ovarian) greater than 100 µM, a TGI (K-562 leukemia) greater than 100 µM and a TGI (KM12 colon) greater than 100 µM. For the same molecule, the TGI (LOX IMVI melanoma) was greater than 100 µM, the TGI (M14 melanoma) was greater than 100 µM and the TGI (MCF7 breast) was greater than 100 µM. It also gave a TGI (MDA-MB-231 breast) greater than 100 µM, a TGI (MDA-MB-435) greater than 100 µM and a TGI (MDA-N) greater than 100 µM. It also gave a TGI (MOLT-4 leukemia) greater than 100 µM, a TGI (NCI-H226 lung) greater than 100 µM and a TGI (NCI-H23 lung) greater than 100 µM. For the same molecule, the TGI (NCI-H460 lung) was greater than 100 µM, the TGI (NCI/ADR-RES ovarian) was greater than 100 µM and the TGI (OVCAR-3 ovarian) was greater than 100 µM. It also gave a TGI (OVCAR-4 ovarian) greater than 100 µM, a TGI (OVCAR-5 ovarian) greater than 100 µM and a TGI (OVCAR-8 ovarian) greater than 100 µM. It also gave a TGI (PC-3 prostate) greater than 100 µM, a TGI (RPMI-8226 leukemia) greater than 100 µM and a TGI (RXF 393 renal) greater than 100 µM. The TGI (SF-268 CNS) was greater than 100 µM, the TGI (SF-295 CNS) was greater than 100 µM and the TGI (SF-539 CNS) was 57.7 µM. It also gave a TGI (SK-MEL-2 melanoma) greater than 100 µM, a TGI (SK-MEL-28 melanoma) greater than 100 µM and a TGI (SK-MEL-5 melanoma) greater than 100 µM. For the same molecule, the TGI (SK-OV-3 ovarian) was greater than 100 µM, the TGI (SN12C renal) was greater than 100 µM and the TGI (SNB-19 CNS) was greater than 100 µM. It also gave a TGI (SNB-75 CNS) greater than 100 µM, a TGI (SR leukemia) greater than 100 µM and a TGI (SW-620 colon) greater than 100 µM. The TGI (T-47D breast) was greater than 100 µM, the TGI (TK-10 renal) was greater than 100 µM and the TGI (U251 CNS) was greater than 100 µM. It also gave a TGI (UACC-257 melanoma) greater than 100 µM, a TGI (UACC-62 melanoma) greater than 100 µM and a TGI (UO-31 renal) greater than 100 µM.
With C=C1C/C(=C/C)C(=O)O[C@@H]2CCN3CC=C(COC(=O)[C@]1(C)O)[C@H]23 the TGI (786-0 renal) was greater than 100 µM, the TGI (A498 renal) was greater than 100 µM and the TGI (A549 NSCLC) was greater than 100 µM. For the same molecule, the TGI (ACHN renal) was greater than 100 µM, the TGI (BT-549 breast) was greater than 100 µM and the TGI (CAKI-1 renal) was greater than 100 µM. It also gave a TGI (CCRF-CEM leukemia) greater than 100 µM, a TGI (COLO 205 colon) greater than 100 µM and a TGI (DU-145 prostate) greater than 100 µM. It also gave a TGI (EKVX NSCLC) greater than 100 µM, a TGI (HCC-2998 colon) greater than 100 µM and a TGI (HCT-116 colon) greater than 100 µM. For the same molecule, the TGI (HCT-15 colon) was greater than 100 µM, the TGI (HL-60(TB) leukemia) was greater than 100 µM and the TGI (HOP-62 NSCLC) was greater than 100 µM. It also gave a TGI (HOP-92 NSCLC) greater than 100 µM, a TGI (HS 578T breast) greater than 100 µM and a TGI (HT29 colon) greater than 100 µM. The TGI (IGROV1 ovarian) was greater than 100 µM, the TGI (K-562 leukemia) was greater than 100 µM and the TGI (KM12 colon) was greater than 100 µM. The TGI (LOX IMVI melanoma) was greater than 100 µM, the TGI (M14 melanoma) was greater than 100 µM and the TGI (MCF7 breast) was greater than 100 µM. For the same molecule, the TGI (MDA-MB-231 breast) was greater than 100 µM, the TGI (MDA-MB-435) was greater than 100 µM and the TGI (MDA-N) was greater than 100 µM. For the same molecule, the TGI (NCI-H226 lung) was greater than 100 µM, the TGI (NCI-H23 lung) was greater than 100 µM and the TGI (NCI-H460 lung) was greater than 100 µM. For the same molecule, the TGI (NCI-H522 lung) was greater than 100 µM, the TGI (NCI/ADR-RES ovarian) was greater than 100 µM and the TGI (OVCAR-3 ovarian) was greater than 100 µM. For the same molecule, the TGI (OVCAR-4 ovarian) was greater than 100 µM, the TGI (OVCAR-5 ovarian) was greater than 100 µM and the TGI (OVCAR-8 ovarian) was greater than 100 µM. The TGI (PC-3 prostate) was greater than 100 µM, the TGI (RPMI-8226 leukemia) was greater than 100 µM and the TGI (SF-268 CNS) was greater than 100 µM. The TGI (SF-295 CNS) was greater than 100 µM, the TGI (SF-539 CNS) was greater than 100 µM and the TGI (SK-MEL-2 melanoma) was greater than 100 µM. For the same molecule, the TGI (SK-MEL-28 melanoma) was greater than 100 µM, the TGI (SK-MEL-5 melanoma) was greater than 100 µM and the TGI (SK-OV-3 ovarian) was greater than 100 µM. For the same molecule, the TGI (SNB-19 CNS) was greater than 100 µM, the TGI (SNB-75 CNS) was greater than 100 µM and the TGI (SR leukemia) was greater than 100 µM. The TGI (SW-620 colon) was greater than 100 µM, the TGI (T-47D breast) was greater than 100 µM and the TGI (TK-10 renal) was greater than 100 µM. The TGI (U251 CNS) was greater than 100 µM, the TGI (UACC-257 melanoma) was greater than 100 µM and the TGI (UACC-62 melanoma) was greater than 100 µM. For the same molecule, the TGI (UO-31 renal) was greater than 100 µM.

Reference: PubChem BioAssay (NCI)
